How the values were obtained:
Plasmodium falciparum [1] = test: Antiplasmodial activity against chloroquine-resistant Plasmodium falciparum W2 assessed as inhibition of parasite LDH activity […] after 72 hrs by malstat reagent method; assay type: functional, organism-based; conditions: W2, 72 h
Homo sapiens [2] = species: Homo sapiens; test: Inhibition of human PP1 at 100 uM
Plasmodium falciparum [3] = test: Antiplasmodial activity against chloroquine-sensitive Plasmodium falciparum D6 assessed as inhibition of parasite LDH activity after 72 hrs by malstat reagent method; assay type: functional, organism-based; conditions: D6, 72 h
Homo sapiens [4] = species: Homo sapiens; test: Inhibition of human PP2A at 100 uM
[5] = Inhibition of human PP2A
[6] = Inhibition of human PP1
[7] = Solubility of the compound in PP1 assay medium at 40 mM; assay type: physicochemical; conditions: 40000 µM
[8] = Solubility of the compound in PP2A assay medium at 40 mM; assay type: physicochemical; conditions: 40000 µM
[9] = Inhibition of human PP1 expressed in Escherichia coli BL21
[10] = Inhibition of human PP2A expressed in Escherichia coli BL21

| Compound | IC50 (Plasmodium falciparum [1]) [µM] | IC50 (Plasmodium falciparum [3]) [µM] | IC50 [5] [µM] | IC50 [6] [µM] | also measured |
| --- | --- | --- | --- | --- | --- |
| O=C(O)C1C(C(=O)Nc2ccccc2CO)[C@H]2CC[C@@H]1O2 (some centres undefined) | 333 | 275 |  |  | inhibition (Homo sapiens [2]): 84%; inhibition (Homo sapiens [4]): 30% |
| CCCN1C(=O)C2C(C1=O)[C@H]1CC[C@@H]2O1 (some centres undefined) | > 500 | > 500 |  |  |  |
| O=C(O)CCCNC(=O)C1C(C(=O)O)[C@@H]2CC[C@H]1O2 (some centres undefined) | > 500 | > 500 | 3.3 | 15 |  |
| Cc1cc(C)c(NC(=O)C2C(C(=O)O)[C@@H]3CC[C@H]2O3)c(C)c1 (some centres undefined) | > 500 | 340 |  |  | inhibition (Homo sapiens [2]): 63%; inhibition (Homo sapiens [4]): 23% |
| Nc1ccccc1CN1C(=O)C2C(C1=O)[C@H]1CC[C@@H]2O1 (some centres undefined) | > 500 | > 500 |  |  |  |
| O=C(O)C1C(C(=O)Nc2ccc3ccccc3c2)[C@H]2CC[C@@H]1O2 (some centres undefined) | 257 | 280 | 15 | 14 |  |
| Cc1cccc(NC(=O)C2C(C(=O)O)[C@@H]3CC[C@H]2O3)c1C (some centres undefined) | 220 | 260 |  |  | inhibition (Homo sapiens [2]): 84%; inhibition (Homo sapiens [4]): 62% |
| C=Cc1ccc(NC(=O)C2C(C(=O)O)[C@@H]3CC[C@H]2O3)cc1 (some centres undefined) | 400 | > 500 | 11 | 23 |  |
| O=C(O)C1C(C(=O)Nc2cccc(Cl)c2)[C@H]2CC[C@@H]1O2 (some centres undefined) | 185 | 250 | 14 | 31 |  |
| CC(CO)N1C(=O)C2C(C1=O)[C@H]1CC[C@@H]2O1 (some centres undefined) | > 500 | > 500 |  |  |  |
| CC(C)(C)c1ccccc1NC(=O)C1C(C(=O)O)[C@@H]2CC[C@H]1O2 (some centres undefined) | > 500 | > 500 |  |  | inhibition (Homo sapiens [2]): 9%; inhibition (Homo sapiens [4]): 16% |
| CCCCCCCCN1C(=O)C2C(C1=O)[C@H]1CC[C@@H]2O1 (some centres undefined) | 250 | 225 |  |  |  |
| O=C(O)C1C(C(=O)NCCN2CCOCC2)[C@H]2CC[C@@H]1O2 (some centres undefined) | > 500 | > 500 | 43 | 30 |  |
| CC(C)(C)c1cc(NC(=O)C2C(C(=O)O)[C@@H]3CC[C@H]2O3)cc(C(C)(C)C)c1 (some centres undefined) | 176 | 59.3 | 8.2 | 8.2 |  |
| CC(C)(C)c1ccc(C(C)(C)C)c(NC(=O)C2C(C(=O)O)[C@@H]3CC[C@H]2O3)c1 (some centres undefined) | 205 | 40 |  |  | solubility [7]: Insoluble; solubility [8]: Insoluble |
| CCCCCOc1ccc(NC(=O)C2C(C(=O)O)[C@@H]3CC[C@H]2O3)cc1 (some centres undefined) | 333 | 110 | 15 | 11 |  |
| CCCCCCCCCCN1C(=O)C2C(C1=O)[C@H]1CC[C@@H]2O1 (some centres undefined) | 141 | 375 |  |  |  |
| O=C(O)C1C(C(=O)NCc2ccc(C(F)(F)F)cc2)[C@H]2CC[C@@H]1O2 (some centres undefined) | 433 | 248 | 20 | 16 |  |
| CCC(C)N1C(=O)C2C(C1=O)[C@H]1CC[C@@H]2O1 (some centres undefined) | 125 | 225 |  |  |  |
| CCN1C(=O)C2C(C1=O)[C@H]1CC[C@@H]2O1 (some centres undefined) | > 500 | > 500 |  |  |  |

| Compound | IC50 (Plasmodium falciparum [1]) [µM] | IC50 (Plasmodium falciparum [3]) [µM] | IC50 [5] [µM] | IC50 [6] [µM] | also measured |
| --- | --- | --- | --- | --- | --- |
| CCCNC(=O)C1C(C(=O)O)[C@@H]2CC[C@H]1O2 (some centres undefined) | > 500 | > 500 | 18 | 46 |  |
| O=C1C2C(C(=O)N1CCN1CCOCC1)[C@H]1CC[C@@H]2O1 (some centres undefined) | > 500 | > 500 |  |  |  |
| NCCCN1C(=O)C2C(C1=O)[C@H]1CC[C@@H]2O1 (some centres undefined) | > 500 | > 500 |  |  |  |
| CSc1ccc(NC(=O)C2C(C(=O)O)[C@@H]3CC[C@H]2O3)cc1 (some centres undefined) | > 500 | > 500 | 14 | 10 |  |
| CCCCNC(=O)C1C(C(=O)O)[C@@H]2CC[C@H]1O2 (some centres undefined) | > 500 | > 500 | 24 | 70 |  |
| CCc1ccccc1NC(=O)C1C(C(=O)O)[C@@H]2CC[C@H]1O2 (some centres undefined) | 400 | 360 | 24 | 51 |  |
| CC(C)(C)c1ccc(NC(=O)C2C(C(=O)O)[C@@H]3CC[C@H]2O3)cc1 (some centres undefined) | > 500 | 405 | 11 | 10 |  |
| O=C(O)C1C(C(=O)NCCc2cnc[nH]2)[C@H]2CC[C@@H]1O2 (some centres undefined) | 267 | 307 |  |  | inhibition (Homo sapiens [2]): 35%; inhibition (Homo sapiens [4]): 26% |
| O=C(O)C1C(C(=O)Nc2cccc(I)c2)[C@H]2CC[C@@H]1O2 (some centres undefined) | 283 | 217 | 18 | 44 |  |
| CCCCN1C(=O)C2C(C1=O)[C@H]1CC[C@@H]2O1 (some centres undefined) | 12.5 | 8.9 |  |  |  |
| O=C(O)C1C(C(=O)Nc2ccc(I)cc2)[C@H]2CC[C@@H]1O2 (some centres undefined) | 248 | 230 | 14 | 33 |  |
| O=C(O)C1C(C(=O)Nc2ccc([N+](=O)[O-])cc2)[C@H]2CC[C@@H]1O2 (some centres undefined) | 393 | > 500 | 23 | 74 |  |
| C#Cc1cccc(NC(=O)C2C(C(=O)O)[C@@H]3CC[C@H]2O3)c1 (some centres undefined) | 194 | 193 | 16 | 20 |  |
| CC(C)C[C@@H](C(=O)O)N1C(=O)C2C(C1=O)[C@H]1CC[C@@H]2O1 (some centres undefined) | > 500 | > 500 |  |  |  |
| C=CCCNC(=O)C1C(C(=O)O)[C@@H]2CC[C@H]1O2 (some centres undefined) | > 500 | > 500 |  |  | solubility [7]: Insoluble; solubility [8]: Insoluble |
| COc1ccc(NC(=O)C2C(C(=O)O)[C@@H]3CC[C@H]2O3)cc1 (some centres undefined) | > 500 | 500 | 16 | 16 |  |
| O=C1C2C(C(=O)N1N1CCOCC1)[C@H]1CC[C@@H]2O1 (some centres undefined) | > 500 | > 500 |  |  |  |
| CSc1ccccc1NC(=O)C1C(C(=O)O)[C@@H]2CC[C@H]1O2 (some centres undefined) | > 500 | 340 |  |  | inhibition (Homo sapiens [2]): 76%; inhibition (Homo sapiens [4]): 58% |
| O=C(O)C1C(C(=O)NCCCc2ccccc2)[C@H]2CC[C@@H]1O2 (some centres undefined) | 230 | 383 | 25 | 25 |  |
| O=C(O)C1C(C(=O)Nc2ccc(CO)cc2)[C@H]2CC[C@@H]1O2 (some centres undefined) | 163 | 160 | 7.2 | 15 |  |

| Compound | IC50 (Plasmodium falciparum [1]) [µM] | IC50 (Plasmodium falciparum [3]) [µM] | IC50 [5] [µM] | IC50 [6] [µM] | also measured |
| --- | --- | --- | --- | --- | --- |
| O=C1C2C(C(=O)N1CCCCCCO)[C@H]1CC[C@@H]2O1 (some centres undefined) | > 500 | > 500 |  |  |  |
| O=C1C2C(C(=O)N1C1CCCCC1)[C@H]1CC[C@@H]2O1 (some centres undefined) | 55 | 140 |  |  |  |
| COc1ccc(CN2C(=O)C3C(C2=O)[C@H]2CC[C@@H]3O2)cc1 (some centres undefined) | 25 | 24 |  |  |  |
| CCCCCCCCCCCCNC(=O)C1C(C(=O)O)[C@@H]2CC[C@H]1O2 (some centres undefined) | 106 | 70 |  |  | solubility [7]: Insoluble; solubility [8]: Insoluble |
| COc1ccc(CNC(=O)C2C(C(=O)O)[C@@H]3CC[C@H]2O3)cc1 (some centres undefined) | > 500 | > 500 | 13 | 35 |  |
| O=C(O)[C@@H]1[C@H](C(=O)O)[C@H]2CC[C@@H]1O2 [ENDOTHALL] |  |  |  |  | IC50 [9]: 4 µM; IC50 [10]: 0.09 µM |
| O=C(O)C1C(C(=O)Nc2cccc3ccccc23)[C@H]2CC[C@@H]1O2 (some centres undefined) | 193 | 210 |  |  | inhibition (Homo sapiens [2]): 79%; inhibition (Homo sapiens [4]): 73% |
| CCCCCCNC(=O)C1C(C(=O)O)[C@@H]2CC[C@H]1O2 (some centres undefined) | 390 | > 500 | 13 | 35 |  |
| Cc1cccc(C)c1NC(=O)C1C(C(=O)O)[C@@H]2CC[C@H]1O2 (some centres undefined) | 290 | 306 |  |  | inhibition (Homo sapiens [2]): 68%; inhibition (Homo sapiens [4]): 24% |
| O=C(O)C1C(C(=O)Nc2cccc(CO)c2)[C@H]2CC[C@@H]1O2 (some centres undefined) | 390 | 440 | 7 | 15 |  |
| O=C(O)C1C(C(=O)Nc2ccccc2)[C@H]2CC[C@@H]1O2 (some centres undefined) | 363 | 300 | 7.7 | 24 |  |
| O=C(O)C1C(C(=O)Nc2ccc(O)cc2)[C@H]2CC[C@@H]1O2 (some centres undefined) | 333 | 265 | 7.7 | 28 |  |
| O=C(O)CCCCCNC(=O)C1C(C(=O)O)[C@@H]2CC[C@H]1O2 (some centres undefined) | > 500 | 260 | 3.5 | 14 |  |
| CCCCCCN1C(=O)C2C(C1=O)[C@H]1CC[C@@H]2O1 (some centres undefined) | 90 | 175 |  |  |  |
| O=C(O)C1C(C(=O)NCCc2ccccc2)[C@H]2CC[C@@H]1O2 (some centres undefined) | 300 | 243 | 29 | 33 |  |
| O=C(O)C1C(C(=O)Nc2ccccc2O)[C@H]2CC[C@@H]1O2 (some centres undefined) | 380 | 385 |  |  | inhibition (Homo sapiens [2]): 33%; inhibition (Homo sapiens [4]): 9.8% |
| O=C(O)C1C(C(=O)NCc2ccc(F)c(F)c2)[C@H]2CC[C@@H]1O2 (some centres undefined) | > 500 | 473 | 26 | 26 |  |
| O=C(O)C1C(C(=O)N2CCSCC2)[C@H]2CC[C@@H]1O2 (some centres undefined) | 204 | 250 | 5.1 | 3.2 |  |
| CCCCCCOc1ccc(NC(=O)C2C(C(=O)O)[C@@H]3CC[C@H]2O3)cc1 (some centres undefined) | 70 | 130 | 20 | 60 |  |
| CC(C)(CO)N1C(=O)C2C(C1=O)[C@H]1CC[C@@H]2O1 (some centres undefined) | > 500 | > 500 |  |  |  |

Source: ChEMBL document CHEMBL1268944, “The antiplasmodial activity of norcantharidin analogs” (Bioorg Med Chem Lett, 2010)
